Source: patent US10711000B2 (Fronthera U.S. Pharmaceuticals LLC, priority 2018, dated 2020)
pIC50: −log10 of the molar value. Where two headings read alike, the source gives them in different places.

Biological target: T1, Autotaxin (Homo sapiens, UniProt Q13822)
T1 construct: from tissue; host or cells: pooled human plasma
Test: LPA formation in pooled human plasma (ex vivo autotaxin inhibition)
Assay type: biochemical
Conditions: 2 hours incubation
In short: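 Ex vivo: LPA 18:2 and 20:4 levels in compound-treated versus untreated pooled human plasma after 2 h incubation, measured by butanol extraction and negative-mode MRM LC/MS/MS against calibration standards. IC50 from non-linear fit of inhibition versus concentration.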

[1] = LPA 18:2 by LC/MS/MS, read-out: LPA formation (18:2) (IC50)
[2] = LPA 20:4 by LC/MS/MS, read-out: LPA formation (20:4) (IC50)

pIC50 [1]	pIC50 [2]	Structure (SMILES)
≥ 7.00	≥ 7.00	CCn1nc2nc(C)c(N3CC4(CN(C(=O)[C@H]5CCOC5)C4)C3)cc2c1N(C)c1nc(-c2ccc(F)cc2)c(C#N)s1 [Compound 121, (S)-2-((2-ethyl-6-methyl-5-(6-(tetrahydrofuran-3-carbonyl)-2,6-diazaspiro[3.3]heptan-2-yl)-2H-pyrazolo[3,4-b]pyridin-3-yl)(methyl)amino)-4-(4-fluorophenyl)thiazole-5-carbonitrile]
≥ 7.00	≥ 7.00	CCc1nn2c(C)cc(N3CC4(CN(C(=O)N5CCOCC5)C4)C3)cc2c1N(C)c1nc(-c2ccc(F)cc2)c(C#N)s1 [Example 42]
6.30 to 7.00	6.30 to 7.00	CCc1nn2c(C)cc(N3CCC4(CN(CC(O)CO)C4)C3)cc2c1N(C)c1nc(-c2ccc(F)cc2)c(C#N)s1 (stereo not shown) [Example 55, 2-((5-(2-(2,3-dihydroxypropyl)-2,6-diazaspiro[3.4]octan-6-yl)-2-ethyl-7-methylpyrazolo[1,5-a]pyridin-3-yl)(methyl)amino)-4-(4-fluorophenyl)thiazole-5-carbonitrile]
≥ 7.00	≥ 7.00	CCc1nn2c(C)cc(N3CC4(CN(C(=O)N5CC(O)C5)C4)C3)cc2c1N(C)c1nc(-c2ccc(F)cc2)c(C#N)s1 [Example 28, 2-((2-ethyl-5-(6-(3-hydroxyazetidine-1-carbonyl)-2,6-diazaspiro[3.3]heptan-2-yl)-7-methylpyrazolo[1,5-a]pyridin-3-yl)(methyl)amino)-4-(4-fluorophenyl)thiazole-5-carbonitrile]
< 6.00	< 6.00	Cc1cc(N2CCN(CC(=O)O)CC2)cc2c(N(C)c3nc(-c4ccc(F)cc4)c(C#N)s3)c(C3CC3)nn12 [Example 80, 2-(4-(3-((5-cyano-4-(4-fluorophenyl)thiazol-2-yl)(methyl)amino)-2-cyclopropyl-7-methylpyrazolo[1,5-a]pyridin-5-yl)piperazin-1-yl)acetic acid]
≥ 7.00	≥ 7.00	CCc1nn2c(C)cc(N3CCN(CC(=O)N4CC(CO)C4)CC3)cc2c1N(C)c1nc(-c2ccc(F)cc2)c(C#N)s1 [Example 27, 2-((2-ethyl-5-(4-(2-(3-(hydroxymethyl)azetidin-1-yl)-2-oxoethyl)piperazin-1-yl)-7-methylpyrazolo[1,5-a]pyridin-3-yl)(methyl)amino)-4-(4-fluorophenyl)thiazole-5-carbonitrile]
6.30 to 7.00	6.30 to 7.00	CCc1nn2c(C)cc(N3CC4(C3)CN(c3ncco3)C4)cc2c1N(C)c1nc(-c2ccc(F)cc2)c(C#N)s1 [Example 35, 2-((2-ethyl-7-methyl-5-(6-(oxazol-2-yl)-2,6-diazaspiro[3.3]heptan-2-yl)pyrazolo[1,5-a]pyridin-3-yl)(methyl)amino)-4-(4-fluorophenyl)thiazole-5-carbonitrile]
≥ 7.00	≥ 7.00	CCc1nn2c(C)cc(N3CCC4(CN(C(=O)[C@H]5CCOC5)C4)C3)cc2c1N(C)c1nc(-c2ccc(F)cc2)c(C#N)s1 [Example 51, (S)-2-((2-ethyl-7-methyl-5-(2-(tetrahydrofuran-3-carbonyl)-2,6-diazaspiro[3.4]octan-6-yl)pyrazolo[1,5-a]pyridin-3-yl)(methyl)amino)-4-(4-fluorophenyl)thiazole-5-carbonitrile]
≥ 7.00	≥ 7.00	CCn1nc2nc(C)c(N3CC4(CN(C(=O)C(C)(C)O)C4)C3)cc2c1N(C)c1nc(-c2ccc(F)cc2)c(C#N)s1 [Compound 120, 2-((2-ethyl-5-(6-(2-hydroxy-2-methylpropanoyl)-2,6-diazaspiro[3.3]heptan-2-yl)-6-methyl-2H-pyrazolo[3,4-b]pyridin-3-yl)(methyl)amino)-4-(4-fluorophenyl)thiazole-5-carbonitrile]
≥ 7.00	≥ 7.00	Cc1cc(N2CC3(CN(C(=O)C(C)(C)O)C3)C2)cc2c(N(C)c3nc(-c4ccc(F)cc4)c(C#N)s3)c(C3CC3)nn12 [Example 77, 2-((2-cyclopropyl-5-(6-(2-hydroxy-2-methylpropanoyl)-2,6-diazaspiro[3.3]heptan-2-yl)-7-methylpyrazolo[1,5-a]pyridin-3-yl)(methyl)amino)-4-(4-fluorophenyl)thiazole-5-carbonitrile]
6.30 to 7.00	6.30 to 7.00	CCc1nn2c(C)cc(N3CC4(CN(C(=O)[C@H](O)CO)C4)C3)cc2c1N(C)c1nc(-c2ccc(F)cc2)c(C#N)s1 (single isomer, unassigned) [Example 75]
≥ 7.00	≥ 7.00	CCc1nn2ccc(N3CC4(CCN(C(=O)N5CC(O)C5)C4)C3)cc2c1N(C)c1nc(-c2ccc(F)cc2)c(C#N)s1 [Example 15, 2-((2-ethyl-5-(6-(3-hydroxyazetidine-1-carbonyl)-2,6-diazaspiro[3.4]octan-2-yl)pyrazolo[1,5-a]pyridin-3-yl)(methyl)amino)-4-(4-fluorophenyl)thiazole-5-carbonitrile]
6.30 to 7.00	6.00 to 6.30	CCc1nn2c(C)cc(N3CC4(CN(C(=O)CO)C4)C3)cc2c1N(C)c1nc(-c2ccc(F)cc2)c(C#N)s1 [Example 29, 2-((2-ethyl-5-(6-(2-hydroxyacetyl)-2,6-diazaspiro[3.3]heptan-2-yl)-7-methylpyrazolo[1,5-a]pyridin-3-yl)(methyl)amino)-4-(4-fluorophenyl)thiazole-5-carbonitrile]
≥ 7.00	≥ 7.00	CCc1nn2cc(F)c(N3CCC4(CC3)CN(C(=O)N3CC(O)C3)C4)cc2c1N(C)c1nc(-c2ccc(F)cc2)c(C#N)s1 [Example 110, 2-((2-ethyl-6-fluoro-5-(2-(3-hydroxyazetidine-1-carbonyl)-2,7-diazaspiro[3.5]nonan-7-yl)pyrazolo[1,5-a]pyridin-3-yl)(methyl)amino)-4-(4-fluorophenyl)thiazole-5-carbonitrile]
≥ 7.00	≥ 7.00	Cc1cn2nc(C3CC3)c(N(C)c3nc(-c4ccc(F)cc4)c(C#N)s3)c2cc1N1CCN(CC(=O)N2CC(O)C2)CC1 [Example 100, 2-((2-cyclopropyl-5-(4-(2-(3-hydroxyazetidin-1-yl)-2-oxoethyl)piperazin-1-yl)-6-methylpyrazolo[1,5-a]pyridin-3-yl)(methyl)amino)-4-(4-fluorophenyl)thiazole-5-carbonitrile]
≥ 7.00	≥ 7.00	CCc1nn2c(C)cc(N3CC4(CN(C(=O)C(C)(C)O)C4)C3)cc2c1N(C)c1nc(-c2ccc(F)cc2)c(C#N)s1 [Example 30, 2-((2-ethyl-5-(6-(2-hydroxy-2-methylpropanoyl)-2,6-diazaspiro[3.3]heptan-2-yl)-7-methylpyrazolo[1,5-a]pyridin-3-yl)(methyl)amino)-4-(4-fluorophenyl)thiazole-5-carbonitrile]
≥ 7.00	≥ 7.00	CCn1nc2ncc(N3CC4(CN(C(=O)C5(O)CCOCC5)C4)C3)cc2c1N(C)c1nc(-c2ccc(F)cc2)c(C#N)s1 [Compound 116, 2-((2-ethyl-5-(6-(4-hydroxytetrahydro-2H-pyran-4-carbonyl)-2,6-diazaspiro[3.3]heptan-2-yl)-2H-pyrazolo[3,4-b]pyridin-3-yl)(methyl)amino)-4-(4-fluorophenyl)thiazole-5-carbonitrile]
≥ 7.00	≥ 7.00	CCc1nn2cc(F)c(N3CC4(CN(C(=O)N5CC(O)C5)C4)C3)cc2c1N(C)c1nc(-c2ccc(F)cc2)c(C#N)s1 [Example 107, 2-((2-ethyl-6-fluoro-5-(6-(3-hydroxyazetidine-1-carbonyl)-2,6-diazaspiro[3.3]heptan-2-yl)pyrazolo[1,5-a]pyridin-3-yl)(methyl)amino)-4-(4-fluorophenyl)thiazole-5-carbonitrile]
≥ 7.00	≥ 7.00	CCc1nn2c(C)cc(N3CCC4(CN(C(=O)C5CCOCC5)C4)C3)cc2c1N(C)c1nc(-c2ccc(F)cc2)c(C#N)s1 [Example 43, 2-((2-ethyl-7-methyl-5-(2-(tetrahydro-2H-pyran-4-carbonyl)-2,6-diazaspiro[3.4]octan-6-yl)pyrazolo[1,5-a]pyridin-3-yl)(methyl)amino)-4-(4-fluorophenyl)thiazole-5-carbonitrile]
6.30 to 7.00	6.30 to 7.00	CCc1nn2c(C)cc(N3CCC4(CN(C[C@H](O)CO)C4)C3)cc2c1N(C)c1nc(-c2ccc(F)cc2)c(C#N)s1 [Example 68, (S)-2-((5-(2-(2,3-dihydroxypropyl)-2,6-diazaspiro[3.4]octan-6-yl)-2-ethyl-7-methylpyrazolo[1,5-a]pyridin-3-yl)(methyl)amino)-4-(4-fluorophenyl)thiazole-5-carbonitrile]
≥ 7.00	≥ 7.00	CCc1nn2c(C)cc(N3CCC4(CN(C(=O)N5CC(O)C5)C4)C3)cc2c1N(C)c1nc(-c2ccc(F)cc2)c(C#N)s1 [Example 36, 2-((2-ethyl-5-(2-(3-hydroxyazetidine-1-carbonyl)-2,6-diazaspiro[3.4]octan-6-yl)-7-methylpyrazolo[1,5-a]pyridin-3-yl)(methyl)amino)-4-(4-fluorophenyl)thiazole-5-carbonitrile]
≥ 7.00	≥ 7.00	CCc1nn2c(C)cc(N3CCC4(CCN(C(=O)N5CC(O)C5)C4)CC3)cc2c1N(C)c1nc(-c2ccc(F)cc2)c(C#N)s1 [Example 37, 2-((2-ethyl-5-(2-(3-hydroxyazetidine-1-carbonyl)-2,8-diazaspiro[4.5]decan-8-yl)-7-methylpyrazolo[1,5-a]pyridin-3-yl)(methyl)amino)-4-(4-fluorophenyl)thiazole-5-carbonitrile]
≥ 7.00	≥ 7.00	CN(c1nc(-c2ccc(F)cc2)c(C#N)s1)c1c(C2CC2)nn2ccc(N3CCN(CC(=O)N4CC(O)C4)CC3)cc12 [Example 21, 2-((2-cyclopropyl-5-(4-(2-(3-hydroxyazetidin-1-yl)-2-oxoethyl)piperazin-1-yl)pyrazolo[1,5-a]pyridin-3-yl)(methyl)amino)-4-(4-fluorophenyl)thiazole-5-carbonitrile]
